Settings in all cases: 2.5E−05M
For assay [1], the target named is T1, α2C (h) (Homo sapiens, UniProt P18825).
T1 sequence (P18825 1-462): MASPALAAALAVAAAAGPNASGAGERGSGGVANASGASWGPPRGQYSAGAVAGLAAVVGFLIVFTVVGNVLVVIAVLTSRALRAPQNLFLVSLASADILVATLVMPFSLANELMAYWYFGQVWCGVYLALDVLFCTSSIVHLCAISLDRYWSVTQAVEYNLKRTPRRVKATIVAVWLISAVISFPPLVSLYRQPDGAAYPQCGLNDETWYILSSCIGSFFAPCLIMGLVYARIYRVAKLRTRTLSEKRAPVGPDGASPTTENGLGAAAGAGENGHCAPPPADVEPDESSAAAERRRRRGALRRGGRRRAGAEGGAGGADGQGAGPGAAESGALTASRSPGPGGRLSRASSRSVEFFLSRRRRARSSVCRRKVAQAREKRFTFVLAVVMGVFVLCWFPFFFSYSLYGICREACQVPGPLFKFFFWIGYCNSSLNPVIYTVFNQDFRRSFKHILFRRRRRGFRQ
The experiment in a line: Abuse liability binding screen, α2C (h) (antagonist radioligand). As for the experimental part: (§1) […]. The abuse liability screen included 44 targets (receptors, transporters, on gated-channel systems) related to the dopamine, norepinephrine, serotonin, gamma-aminobutyric acid (GABA), acetylcholine, N-methyl-D-aspartate (NMDA) cannabinoid and opioid neurotransmitter systems as recommended in FDA Draft guidance on Assessment of Abuse Potential of Drugs, January 2010.
(§2) Compound binding was calculated as a % inhibition of the binding of a radioactively labeled ligand specific for each target.
(§3) Results showing an inhibition or stimulation higher than 50% are considered to represent significant effects of the test compounds.

The target of assay [2] is T2, 5-HT3 (h) (Homo sapiens, UniProt P46098).
T2 sequence (P46098 24-478): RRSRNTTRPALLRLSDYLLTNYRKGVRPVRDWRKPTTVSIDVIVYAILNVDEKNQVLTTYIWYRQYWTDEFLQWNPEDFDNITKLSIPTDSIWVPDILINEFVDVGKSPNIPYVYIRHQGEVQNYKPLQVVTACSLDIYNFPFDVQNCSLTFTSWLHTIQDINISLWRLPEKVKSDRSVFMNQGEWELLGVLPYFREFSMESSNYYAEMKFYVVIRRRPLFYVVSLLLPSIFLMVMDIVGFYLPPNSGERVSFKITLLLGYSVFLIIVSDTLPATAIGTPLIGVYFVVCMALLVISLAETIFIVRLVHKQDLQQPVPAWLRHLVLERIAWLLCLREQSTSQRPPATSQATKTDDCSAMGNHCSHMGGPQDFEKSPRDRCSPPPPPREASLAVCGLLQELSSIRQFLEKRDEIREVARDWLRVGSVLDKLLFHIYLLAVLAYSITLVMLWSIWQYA
Description: Abuse liability binding screen, 5-HT3 (h) (antagonist radioligand). How it is done: as §1, §2, §3

Assay [3] has as its target δ2 (DOP) (h) (Homo sapiens, UniProt P41143). Description: Binding screen and IC50 determination, δ2 (DOP) (h) (agonist radioligand). As for the experimental part: as §2
In assay [4] the test system is Cl^− channel (GABA-gated). The experiment in a line: Abuse liability binding screen, Cl− channel (GABA-gated) (antagonist radioligand). As for the experimental part: as §2
Assay [5] concerns the target T3, AR (h) (Homo sapiens, UniProt P10275).
T3 sequence (P10275 1-920): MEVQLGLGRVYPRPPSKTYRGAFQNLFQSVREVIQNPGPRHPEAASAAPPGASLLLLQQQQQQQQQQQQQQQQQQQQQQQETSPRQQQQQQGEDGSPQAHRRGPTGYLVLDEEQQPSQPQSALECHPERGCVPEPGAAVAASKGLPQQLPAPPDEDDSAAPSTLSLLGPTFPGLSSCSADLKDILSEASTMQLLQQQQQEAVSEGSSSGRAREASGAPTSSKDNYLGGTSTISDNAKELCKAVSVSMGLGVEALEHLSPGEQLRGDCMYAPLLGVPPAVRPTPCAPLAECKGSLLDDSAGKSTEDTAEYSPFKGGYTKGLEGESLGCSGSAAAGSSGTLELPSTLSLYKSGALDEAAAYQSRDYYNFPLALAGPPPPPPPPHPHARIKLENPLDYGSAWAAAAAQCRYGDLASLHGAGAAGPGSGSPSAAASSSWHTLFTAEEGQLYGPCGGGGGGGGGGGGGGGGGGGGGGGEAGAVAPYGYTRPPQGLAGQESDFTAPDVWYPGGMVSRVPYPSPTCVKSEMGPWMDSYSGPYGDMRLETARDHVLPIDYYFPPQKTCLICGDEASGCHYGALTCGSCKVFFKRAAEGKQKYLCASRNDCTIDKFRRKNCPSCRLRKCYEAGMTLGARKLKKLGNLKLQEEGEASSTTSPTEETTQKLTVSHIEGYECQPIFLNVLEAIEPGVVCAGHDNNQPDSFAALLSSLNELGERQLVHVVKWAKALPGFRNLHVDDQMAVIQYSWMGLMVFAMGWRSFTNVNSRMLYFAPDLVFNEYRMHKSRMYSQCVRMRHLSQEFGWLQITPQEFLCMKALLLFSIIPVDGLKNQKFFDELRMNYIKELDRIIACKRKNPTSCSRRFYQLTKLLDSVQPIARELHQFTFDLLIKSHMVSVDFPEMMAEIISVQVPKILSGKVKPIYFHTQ
Description: Abuse liability binding screen, AR (h) (agonist radioligand). As for the experimental part:
as §1, §2, §3

Assay [6] addresses CB1 (h) (Homo sapiens, UniProt P21554). The experiment in a line: Abuse liability binding screen, CB1 (h) (agonist radioligand). How it is done: as §1, §2, §3
Assay [7] deals with T4, 5-HT2c (h) (Homo sapiens, UniProt P28335).
T4 sequence (P28335 33-458): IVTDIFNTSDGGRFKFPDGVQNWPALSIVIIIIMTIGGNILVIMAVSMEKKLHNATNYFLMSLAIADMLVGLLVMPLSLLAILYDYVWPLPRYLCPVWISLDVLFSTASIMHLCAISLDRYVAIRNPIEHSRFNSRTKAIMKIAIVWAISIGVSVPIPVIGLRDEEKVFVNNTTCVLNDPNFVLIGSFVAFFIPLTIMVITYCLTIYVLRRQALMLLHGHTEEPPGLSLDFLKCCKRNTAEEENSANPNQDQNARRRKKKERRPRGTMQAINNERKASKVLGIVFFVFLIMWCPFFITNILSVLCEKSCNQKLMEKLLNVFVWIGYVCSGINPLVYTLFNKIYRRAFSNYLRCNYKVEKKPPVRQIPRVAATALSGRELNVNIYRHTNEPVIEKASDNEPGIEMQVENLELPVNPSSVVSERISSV
The experiment in a line: Abuse liability binding screen, 5-HT2c (h) (agonist radioligand). As for the experimental part: as §2

Sequence of CB1 (h) (P21554 whole entry): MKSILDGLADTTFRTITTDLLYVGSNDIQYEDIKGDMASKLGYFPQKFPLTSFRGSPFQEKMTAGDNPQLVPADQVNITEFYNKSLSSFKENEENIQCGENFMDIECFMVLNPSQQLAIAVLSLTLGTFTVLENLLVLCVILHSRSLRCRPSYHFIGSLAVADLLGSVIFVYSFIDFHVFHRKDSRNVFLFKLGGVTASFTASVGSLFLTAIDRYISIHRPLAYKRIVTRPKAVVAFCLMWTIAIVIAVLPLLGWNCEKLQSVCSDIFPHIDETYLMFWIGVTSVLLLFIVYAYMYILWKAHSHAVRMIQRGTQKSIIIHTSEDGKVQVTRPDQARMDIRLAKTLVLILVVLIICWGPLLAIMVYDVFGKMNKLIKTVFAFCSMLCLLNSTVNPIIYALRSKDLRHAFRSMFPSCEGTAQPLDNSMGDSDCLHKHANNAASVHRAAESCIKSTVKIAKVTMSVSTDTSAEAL
Sequence of δ2 (DOP) (h) (P41143 whole entry): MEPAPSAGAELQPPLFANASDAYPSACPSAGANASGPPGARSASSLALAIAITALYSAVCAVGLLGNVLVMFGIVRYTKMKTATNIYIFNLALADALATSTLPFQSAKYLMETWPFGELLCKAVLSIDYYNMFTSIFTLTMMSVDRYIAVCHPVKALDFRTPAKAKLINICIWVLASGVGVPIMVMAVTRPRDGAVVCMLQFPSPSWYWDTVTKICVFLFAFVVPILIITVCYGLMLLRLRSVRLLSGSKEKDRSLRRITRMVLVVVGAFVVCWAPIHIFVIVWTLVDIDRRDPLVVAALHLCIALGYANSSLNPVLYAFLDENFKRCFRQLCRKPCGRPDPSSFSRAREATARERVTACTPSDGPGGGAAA

Turning to `O=C(O)[C@H]1O[C@@H](Oc2ccc3c4c2O[C@H]2[C@@H](O)CC[C@@]5(O)[C@@H](C3)N(CC3CCC3)CC[C@]425)[C@H](O)[C@@H](O)[C@@H]1O` [Compound M5, nalbuphine-3-beta-D-glucuronid], the “% Inhibition of Control Specific Binding 1st” value in assay [1] was 12.1%; in assay [2], 3.2%; in assay [3], 13.9%; in assay [4], 3.3%; in assay [5], 4.9%; in assay [6], −2.9%. In assay [7], the “% Inhibition of Control Specific Binding 1st” value was −7.9%. Besides, the “% Inhibition of Control Specific Binding 2nd” value is given as 6.5% in assay [1]; 10.9% in assay [2]; 18.2% in assay [3]; −7.4% in assay [4]; −0.8% in assay [5]; 12.9% in assay [6]. In assay [7], the “% Inhibition of Control Specific Binding 2nd” value was −8.2%. Further, the “% Inhibition of Control Specific Binding Mean” value in assay [1] is 9.3%; in assay [2], 7.0%; in assay [4], −2.1%; in assay [5], 2.1%; in assay [6], 5.0%; in assay [7], −8.0%.

(Values after patent US9624233B2, “Compounds for treating pruritic conditions” (priority 2015, dated 2017).)
